One molecule from article PMC4195943, “A novel small-molecule MRCK inhibitor blocks cancer cell invasion” (Cell Communication and Signaling : CCS, 2014) can be followed below.

One may read the EC50 as the concentration that produces a half-maximal response. Usually inhibition stands for the change of the read-out against control, counted positive when it falls.

One assay has as its target ROCK2 (Homo sapiens, UniProt O75116). The assay is described as follows: MLC phosphorylation in MDA-MB-231 cells expressing doxycycline-induced ROCK2 kinase domain (quantitative western blot). Also on record: The kinase domains of MRCKβ (1–473), ROCK1 (1–535) or ROCK2 (1–532) were gene synthesized; expressed in transfected cells; host or cells: MDA-MB-231 D3H2LN-Luc Tet3G cells, pTRE3G-ROCK2 (1–532). To be noted: doxycycline-induced MDA-MB-231, 60 minutes treatment; read-out: cell based EC50, MLC phosphorylation induced by ROCK2. The method, then: (A) MDA-MB-231 breast cancer cells expressing doxycycline inducible ROCK1, ROCK2 or MRCKβ kinase domains were established as indicated. Following treatment with doxycycline for 18 hours to induce expression, cell lysates were western blotted with antibodies as indicated.
MDA-MB-231 D3H2LN-Luc cells (Caliper LifeScience) were grown in MEM/EBSS (Hyclone) supplemented with 10% fetal bovine serum (FBS) (Gibco), 1 mM Sodium Pyruvate (Sigma) 2 mM L-glutamine (Gibco), 1× MEM non-essential amino acids (Gibco) plus penicillin-streptomycin (10 Units/ml and 10 μg/ml respectively) at 37°C in 5% CO2 in a humidified incubator. MDA-MB-231 D3H2LN-Luc TetOn MRCKβ, ROCK1 and ROCK2 selective cell lines were grown in the same media with 10% FBS replaced with 10% Tet System Approved FBS (Clontech).
The kinase domains of MRCKβ (1–473), ROCK1 (1–535) or ROCK2 (1–532) were gene synthesized (Genscript) and subcloned into pTRE3G (Clontech). MDA-MB-231 D3H2LN-Luc Tet3G cells were co-transfected with pTRE3G-MRCKβ (1–473), pTRE3G-ROCK1 (1–535) or pTRE3G-ROCK2 (1–532), together with a linear Pur^r-selection marker using Xfect transfection reagent according to manufacturer’s instructions. […] Each clone was treated with or without doxycycline (1 μg/ml) for 24 hours and kinase domain expression and activity determined by western blotting. […]
For orientation: Immunoblotting shows a protein as a band on a membrane.

For a further assay, the target named is T1, PKAα (Homo sapiens, UniProt P17612).
T1 construct: purchased Eurofins
The assay is described as follows: Kinase selectivity profiling (Eurofins), PKAα. Type of assay: biochemical. From the text: The results of this screening were mapped over the annotated human kinome phylogenetic tree using Kinome Render (Figure 2).
Kinases inhibited less than 25% have their names in green text. Kinases inhibited >25% and ≤50% have yellow circles, >50% and ≤75% have orange circles, and >75% have red circles. In each case, the size of the circle is proportional to the percentage inhibition. ROCK1 and MRCKα positions are indicated on the tree for orientation purposes. Illustration reproduced courtesy of Cell Signaling Technology, Inc. (www.cellsignal.com).
MRCKα, MRCKβ, ROCK1 and ROCK2 assays were performed using an IMAP fluorescence polarization assay format (Molecular Devices Inc.). 8–12 nM of each kinase (Life Technologies) was incubated for 60 min at room temperature with 100 nM FAM-S6-ribosomal protein derived peptide (synthesized by Alta Biosciences, University of Birmingham UK) in the presence of 1 μM ATP and 0.5 mM MgCl2 in 20 mM Tris buffer (pH 7.4) containing 0.01% Tween-20 and 1 mM DTT (MRCKα and β); or 1 μM ATP, 10 mM MgCl2 in 20 mM Tris buffer (pH 7.5) containing 0.25 mM EGTA 0.01% Triton X-100 and 1 mM DTT (ROCK1 and ROCK2). […] After 30 min incubation to allow binding reagent to bind phosphorylated peptide, fluorescence polarization was measured on a Tecan Saphire^2 plate reader at excitation (470 nm) and emission (530 nm) wavelengths. […]

Chain of ROCK2 (O75116 1-532): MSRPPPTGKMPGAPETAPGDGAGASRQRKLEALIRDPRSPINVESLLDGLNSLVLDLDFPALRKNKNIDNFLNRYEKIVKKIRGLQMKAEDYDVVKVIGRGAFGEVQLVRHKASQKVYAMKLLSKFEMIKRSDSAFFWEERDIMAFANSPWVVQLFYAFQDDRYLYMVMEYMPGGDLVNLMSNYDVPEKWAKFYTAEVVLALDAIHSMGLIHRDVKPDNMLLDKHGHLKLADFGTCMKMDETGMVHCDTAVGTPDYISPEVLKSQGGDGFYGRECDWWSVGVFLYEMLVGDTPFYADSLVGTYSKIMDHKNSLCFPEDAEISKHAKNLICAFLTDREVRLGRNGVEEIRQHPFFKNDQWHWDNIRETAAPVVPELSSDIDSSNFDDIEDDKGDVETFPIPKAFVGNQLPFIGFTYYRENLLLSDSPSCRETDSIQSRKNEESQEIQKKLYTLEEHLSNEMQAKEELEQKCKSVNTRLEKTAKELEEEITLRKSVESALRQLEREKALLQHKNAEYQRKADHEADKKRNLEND

With `O=C(Nc1cn[nH]c1-c1ccccn1)c1nn(C2CCNCC2)cc1Cl` [BDP5290, 4-chloro-1-(4-piperidyl)-N-[5-(2-pyridyl)-1H-pyrazol-4-yl]pyrazole-3-carboxamide], at ROCK2, the 50% effective concentration (EC50) was 447 nM. Besides, the inhibition at 10 µM against PKAα is greater than 75%.
